{"source": "patent US20020137929A1", "about": "“1 - (3-heterocyclylphenyl) isothiourea, -isourea, -guanidine and -amidine herbicidal agents” (Intellectual Property Department, BASF Aktiengesellschaft, priority 1998, published 2002)", "key": {"SETVI (Foxtail, Green)": {"tested_on": "SETVI (Foxtail, Green)", "assay": "Preemergence herbicidal evaluation", "format": "in vivo, Setaria viridis", "conditions": "rated 4-5 weeks after treatment, rating scale 0-9", "summary_of_the_method": "(§1)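 Steps: mix seeds into potting soil; plant atop ~1 inch soil; spray compound in aqueous acetone (~0.0156-0.500 kg/ha equivalent); maintain in greenhouse with watering; rate visually 0-9 versus control at 4-5 weeks.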"}, "AMBEL (Ragweed, Common) [1]": {"tested_on": "AMBEL (Ragweed, Common)", "assay": "Preemergence herbicidal evaluation", "format": "in vivo, Ambrosia artemisifolia", "conditions": "rated 4-5 weeks after treatment, rating scale 0-9", "summary_of_the_method": "as §1"}, "GALAP (Galium)": {"tested_on": "GALAP (Galium)", "assay": "Preemergence herbicidal evaluation", "format": "in vivo, Galium aparine", "conditions": "rated 4-5 weeks after treatment, rating scale 0-9", "summary_of_the_method": "as §1"}, "CASOB (Sicklepod)": {"tested_on": "CASOB (Sicklepod)", "assay": "Preemergence herbicidal evaluation", "format": "in vivo, Cassia obtusifolia", "conditions": "rated 4-5 weeks after treatment, rating scale 0-9", "summary_of_the_method": "as §1"}, "[2]": {"tested_on": "IPOHE (Morningglory, Ivyleaf)", "assay": "Postemergence herbicidal evaluation", "format": "in vivo, Ipomoea hederacea", "conditions": "postemergence", "summary_of_the_method": "(§2)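 Two-week-old seedlings sprayed with compound in 50/50 acetone/water plus 0.5% TWEEN 20, at about 0.0156 to 0.500 kg/ha, nozzle at 40 psi. Kept in greenhouse; rated visually 4-5 weeks after treatment on a 0-9 scale versus control, repeat tests averaged.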"}, "[3]": {"tested_on": "GLXMAW (Soybean, Williams)", "assay": "Preemergence herbicidal evaluation", "format": "in vivo, Glycine max, (L.) Merr. cv Williams", "conditions": "rated 4-5 weeks after treatment, rating scale 0-9", "summary_of_the_method": "as §1"}, "[4]": {"tested_on": "GLXMAW (Soybean, Williams)", "assay": "Postemergence herbicidal evaluation", "format": "in vivo, Glycine max, (L.) Merr. cv Williams", "conditions": "postemergence", "summary_of_the_method": "as §2"}, "ABUTH (Velvetleaf)": {"tested_on": "ABUTH (Velvetleaf)", "assay": "Preemergence herbicidal evaluation", "format": "in vivo, Abutilon theophrasti", "conditions": "rated 4-5 weeks after treatment, rating scale 0-9", "summary_of_the_method": "as §1"}, "ECHCG (Barnyardgrass)": {"tested_on": "ECHCG (Barnyardgrass)", "assay": "Preemergence herbicidal evaluation", "format": "in vivo, Echinochloa crus-galli", "conditions": "rated 4-5 weeks after treatment, rating scale 0-9", "summary_of_the_method": "as §1"}, "AMBEL (Ragweed, Common) [5]": {"tested_on": "AMBEL (Ragweed, Common)", "assay": "Postemergence herbicidal evaluation", "format": "in vivo, Ambrosia artemisifolia", "conditions": "postemergence", "summary_of_the_method": "as §2"}, "CYPSE (Flatsedge)": {"tested_on": "CYPSE (Flatsedge)", "assay": "Preemergence weed control under flooded paddy conditions", "format": "in vivo, Cyperus serotinus", "conditions": "rated 3-4 weeks after treatment", "summary_of_the_method": "(§3)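 Seeds or propagules sown in top 0.5 cm of silt loam soil, flooded 1.5 to 3 cm above surface throughout. Compound in 50/50 v/v aqueous/acetone pipetted into flood water at about 0.0313 to 0.500 kg/ha. Visual 0-9 rating versus control after three to four weeks in greenhouse.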"}, "ZEAMX (Corn, Field)": {"tested_on": "ZEAMX (Corn, Field)", "assay": "Postemergence herbicidal evaluation", "format": "in vivo, Zea mays", "conditions": "postemergence", "summary_of_the_method": "as §2"}, "[6]": {"tested_on": "SAGPY (Arrowhead (Pygmaea))", "assay": "Preemergence weed control under flooded paddy conditions", "format": "in vivo, Sagittaria pygmaea", "conditions": "rated 3-4 weeks after treatment", "summary_of_the_method": "as §3"}}, "data": [{"smiles": "CN(C)c1ccc(CN2C(=O)CSC2=Nc2cc(-n3c(=O)cc(C(F)(F)F)n(C)c3=O)c(F)cc2Cl)cc1", "note": "[Compound 138, 3-{4-Chloro-5-{{3-[p-(dimethylamino)benzyl]-4-oxo-2-thiazolidinylidene}amino}-2-fluorophenyl}-1-methyl-6-(trifluoromethyl)-2,4(1H,3H)-pyrimidinedione]", "values": [{"measurement": "Preemergence herbicidal rating SETVI", "setting": "SETVI (Foxtail, Green); rate 0.0156 kg/ha", "value": 0.0}, {"measurement": "Preemergence herbicidal rating SETVI", "setting": "SETVI (Foxtail, Green); rate 0.0313 kg/ha", "value": 0.0}, {"measurement": "Preemergence herbicidal rating SETVI", "setting": "SETVI (Foxtail, Green); rate 0.0625 kg/ha", "value": 0.0}, {"measurement": "Preemergence herbicidal rating SETVI", "setting": "SETVI (Foxtail, Green); rate 0.1250 kg/ha", "value": 3.0}, {"measurement": "Preemergence herbicidal rating SETVI", "setting": "SETVI (Foxtail, Green); rate 0.2500 kg/ha", "value": 2.0}, {"measurement": "Preemergence herbicidal rating AMBEL", "setting": "AMBEL (Ragweed, Common) [1]; rate 0.0156 kg/ha", "value": 0.0}, {"measurement": "Preemergence herbicidal rating AMBEL", "setting": "AMBEL (Ragweed, Common) [1]; rate 0.0313 kg/ha", "value": 0.0}, {"measurement": "Preemergence herbicidal rating AMBEL", "setting": "AMBEL (Ragweed, Common) [1]; rate 0.0625 kg/ha", "value": 0.0}, {"measurement": "Preemergence herbicidal rating AMBEL", "setting": "AMBEL (Ragweed, Common) [1]; rate 0.1250 kg/ha", "value": 1.0}, {"measurement": "Preemergence herbicidal rating AMBEL", "setting": "AMBEL (Ragweed, Common) [1]; rate 0.2500 kg/ha", "value": 2.0}, {"measurement": "Preemergence herbicidal rating GALAP", "setting": "GALAP (Galium); rate 0.0156 kg/ha", "value": 0.0}, {"measurement": "Preemergence herbicidal rating GALAP", "setting": "GALAP (Galium); rate 0.0313 kg/ha", "value": 0.0}, {"measurement": "Preemergence herbicidal rating GALAP", "setting": "GALAP (Galium); rate 0.0625 kg/ha", "value": 0.0}, {"measurement": "Preemergence herbicidal rating GALAP", "setting": "GALAP (Galium); rate 0.1250 kg/ha", "value": 0.0}, {"measurement": "Preemergence herbicidal rating GALAP", "setting": "GALAP (Galium); rate 0.2500 kg/ha", "value": 4.0}, {"measurement": "Preemergence herbicidal rating CASOB", "setting": "CASOB (Sicklepod); rate 0.0156 kg/ha", "value": 0.0}, {"measurement": "Preemergence herbicidal rating CASOB", "setting": "CASOB (Sicklepod); rate 0.0313 kg/ha", "value": 0.0}, {"measurement": "Preemergence herbicidal rating CASOB", "setting": "CASOB (Sicklepod); rate 0.0625 kg/ha", "value": 0.0}, {"measurement": "Preemergence herbicidal rating CASOB", "setting": "CASOB (Sicklepod); rate 0.1250 kg/ha", "value": 0.0}, {"measurement": "Preemergence herbicidal rating CASOB", "setting": "CASOB (Sicklepod); rate 0.2500 kg/ha", "value": 0.0}, {"measurement": "Herbicidal rating IPOHE", "setting": "[2]; rate 0.0156 kg/ha", "value": 9.0}, {"measurement": "Herbicidal rating IPOHE", "setting": "[2]; rate 0.0313 kg/ha", "value": 9.0}, {"measurement": "Herbicidal rating IPOHE", "setting": "[2]; rate 0.0625 kg/ha", "value": 9.0}, {"measurement": "Preemergence herbicidal rating GLXMAW", "setting": "[3]; rate 0.0156 kg/ha", "value": 0.0}, {"measurement": "Preemergence herbicidal rating GLXMAW", "setting": "[3]; rate 0.0313 kg/ha", "value": 0.0}, {"measurement": "Preemergence herbicidal rating GLXMAW", "setting": "[3]; rate 0.0625 kg/ha", "value": 0.0}, {"measurement": "Preemergence herbicidal rating GLXMAW", "setting": "[3]; rate 0.1250 kg/ha", "value": 0.0}, {"measurement": "Preemergence herbicidal rating GLXMAW", "setting": "[3]; rate 0.2500 kg/ha", "value": 1.0}, {"measurement": "Herbicidal rating GLXMAW", "setting": "[4]; rate 0.0156 kg/ha", "value": 5.0}, {"measurement": "Herbicidal rating GLXMAW", "setting": "[4]; rate 0.0313 kg/ha", "value": 6.0}, {"measurement": "Herbicidal rating GLXMAW", "setting": "[4]; rate 0.0625 kg/ha", "value": 6.5}, {"measurement": "Preemergence herbicidal rating ABUTH", "setting": "ABUTH (Velvetleaf); rate 0.0156 kg/ha", "value": 0.0}, {"measurement": "Preemergence herbicidal rating ABUTH", "setting": "ABUTH (Velvetleaf); rate 0.0313 kg/ha", "value": 0.0}, {"measurement": "Preemergence herbicidal rating ABUTH", "setting": "ABUTH (Velvetleaf); rate 0.0625 kg/ha", "value": 0.0}, {"measurement": "Preemergence herbicidal rating ABUTH", "setting": "ABUTH (Velvetleaf); rate 0.1250 kg/ha", "value": 9.0}, {"measurement": "Preemergence herbicidal rating ABUTH", "setting": "ABUTH (Velvetleaf); rate 0.2500 kg/ha", "value": 9.0}, {"measurement": "Preemergence herbicidal rating ECHCG", "setting": "ECHCG (Barnyardgrass); rate 0.0156 kg/ha", "value": 0.0}, {"measurement": "Preemergence herbicidal rating ECHCG", "setting": "ECHCG (Barnyardgrass); rate 0.0313 kg/ha", "value": 0.0}, {"measurement": "Preemergence herbicidal rating ECHCG", "setting": "ECHCG (Barnyardgrass); rate 0.0625 kg/ha", "value": 0.0}, {"measurement": "Preemergence herbicidal rating ECHCG", "setting": "ECHCG (Barnyardgrass); rate 0.1250 kg/ha", "value": 0.0}, {"measurement": "Preemergence herbicidal rating ECHCG", "setting": "ECHCG (Barnyardgrass); rate 0.2500 kg/ha", "value": 0.0}, {"measurement": "Herbicidal rating AMBEL", "setting": "AMBEL (Ragweed, Common) [5]; rate 0.0156 kg/ha", "value": 9.0}, {"measurement": "Herbicidal rating AMBEL", "setting": "AMBEL (Ragweed, Common) [5]; rate 0.0313 kg/ha", "value": 9.0}, {"measurement": "Herbicidal rating AMBEL", "setting": "AMBEL (Ragweed, Common) [5]; rate 0.0625 kg/ha", "value": 9.0}, {"measurement": "herbicidal effect rating, CYPSE", "setting": "CYPSE (Flatsedge); 0.0313 kg/ha", "value": 0.0}, {"measurement": "herbicidal effect rating, CYPSE", "setting": "CYPSE (Flatsedge); 0.0625 kg/ha", "value": 0.0}, {"measurement": "herbicidal effect rating, CYPSE", "setting": "CYPSE (Flatsedge); 0.1250 kg/ha", "value": 0.0}, {"measurement": "herbicidal effect rating, CYPSE", "setting": "CYPSE (Flatsedge); 0.2500 kg/ha", "value": 0.0}, {"measurement": "Herbicidal rating ZEAMX", "setting": "ZEAMX (Corn, Field); rate 0.0156 kg/ha", "value": 4.0}, {"measurement": "Herbicidal rating ZEAMX", "setting": "ZEAMX (Corn, Field); rate 0.0313 kg/ha", "value": 4.5}, {"measurement": "Herbicidal rating ZEAMX", "setting": "ZEAMX (Corn, Field); rate 0.0625 kg/ha", "value": 5.0}, {"measurement": "herbicidal effect rating, SAGPY", "setting": "[6]; 0.0313 kg/ha", "value": 0.0}, {"measurement": "herbicidal effect rating, SAGPY", "setting": "[6]; 0.0625 kg/ha", "value": 0.0}, {"measurement": "herbicidal effect rating, SAGPY", "setting": "[6]; 0.1250 kg/ha", "value": 0.0}, {"measurement": "herbicidal effect rating, SAGPY", "setting": "[6]; 0.2500 kg/ha", "value": 3.0}]}]}
